Key:
Assay type in all cases: in vivo
Male NMRI mice [1] = experiment: Mouse tetrad model, hot plate analgesia, agonistic effect; conditions: 5 mg/kg i.v., 15 minutes after injection
From the text: (§1) Substances with affinity for cannabinoid receptors are known to produce a wide range of pharmacological effects. It is also known that intravenous administration of a substance with affinity for cannabinoid receptors in mice produces analgesia, hypothermia, sedation and catalepsy. Individually, none of these effects can be considered as proof that a tested substance has affinity for cannabinoid-receptors, since all of these effects are common for various classes of centrally active agents. However, substances, which show all of these effects, i.e. substances that are active in this so-called tetrad model are considered to have affinity for the cannabinoid receptors. It has further been shown that cannabinoid receptor antagonists are higly effective in blocking the effects of a cannabinoid agonist in the mouse tetrad model.
(§2) The tetrad model is described, for example, in the publication of A. C. Howlett et al, International Union of Pharmacology XXVII. […]
(§3) Before testing in the behavioral procedures given below, mice are acclimatized to the experimental setting. Pre-Treatment control values are determined for analgesia hot plate latency (in seconds), rectal temperature, sedation and catalepsy.
(§4) In order to determine the agonistic activty of the substance to be tested, the mice are injected intravenously with the substance to be tested or the vehicle alone. 15 minutes after injection, latency in hot plate analgesia is measured. Rectal temperature, sedation and catalepsy are measured 20 minutes after injection.
The hot plate analgesia is determined according to the method described in Woolfe D. et al. “The evaluation of analgesic action of pethidine hydrochloride (Demerol)”, J. Pharmacol. Exp. Ther. 80, 300-307, 1944. […]
The mice are placed on a hot plate (Harvard Analgesimeter) at 55±0.5° C. until they show a painful sensation by licking their paws or jumping and the time for these sensations to occur is recorded. This reading is considered the basal value (B). […]
The degree of analgesia is calculated from the formula: % MPE of Analgesia=(PT-B)/(PC-B)×100 MPE=Maximum possible effect.

Male NMRI mice [2] = experiment: Mouse tetrad model, hypothermia, agonistic effect; conditions: 5 mg/kg i.v., 20 minutes after injection
From the text: as §1
(§5) The tetrad model is described, for example, in the publication of A. C. Howlett et al, International Union of Pharmacology XXVII. Classification of Cannabinoid Receptors, Pharmacol Rev 54, 161-202, 2002 and David R. Compton et al., “In-vivo Characterization of a Specific Cannabinoid Receptor Antagonist (SR141716A): Inhibition of Tetrahydrocannbinol-induced Responses and Apparent Agonist Activity”, J. Pharmacol. Exp. Ther. 277 , 2, 586-594, 1996. The corresponding parts of the description are hereby incorporated by reference.
(§6) Male NMRI mice with a weight of 20-30 g (Harlan, Barcelona, Spain) are used in all of the following experiments.
as §3, §4
Hypothermia is determined according to the method described in David R. Compton et al. “In-vivo Characterization of a Specific Cannabinoid Receptor Antagonist (SR141716A) Inhibition of Tetrahydrocannbinol-induced Responses and Apparent Agonist Activity”, J. Pharmacol Exp Ther. 277, 2, 586-594, 1996. The respective description is hereby incorporated by reference and forms part of the present disclosure.
The base-line rectal temperatures are determined with a thermometer (Yello Springs Instruments Co., Panlabs) and a thermistor probe inserted to 25 mm before the administration of the substance to be tested. Rectal temperature is again measured 20 minutes after the administration of the substances to be tested. The temperature difference is calculated for each animal, whereby differences of ≧−2° C. are considered to represent activity.

Male NMRI mice [3] = experiment: Mouse tetrad model, catalepsy, agonistic effect; conditions: 5 mg/kg i.v., 20 minutes after injection
From the text: as §1, §5, §6, §3, §4
Catalepsy is determined according to the method described in Alpermann H. G. et al. “Pharmacological effets of Hoe 249: A new potential antidepressant”, Drugs Dev. Res. 25, 267-282. 1992. The respective description is hereby incorporated by reference and forms part of the present disclosure.
The cataleptic effect of the substance to be tested is evaluated according to the duration of catalepsy, whereby the animals are placed head downwards with their kinlegs upon the top of the wooden block.
The chosen scoring system is:
The percentage of catalepsy is determined according ot the following formula: % Catalepsy=arithmetic mean/6×100

Male NMRI mice [4] = experiment: Mouse tetrad model, sedation, agonistic effect; conditions: 5 mg/kg i.v., 20 minutes after injection
From the text: as §1, §5, §6, §3, §4
Determination of Sedation and Ataxia
Sedation and ataxia is determined according to the method described in Desmet L. K. C. et al. “Anticonvulsive properties of Cinarizine and Flunarizine in Rats and Mice”, Arzneim.-Forsch. (Frug Res) 25, 9, 1975. The respective description is hereby incorporated by reference and forms part of the present disclosure.
The chosen scoring system is
2: obvious calmness and quiet;
prior to as well as after treatment.
(§7) The percentage of sedation is determined according to the formula: % of sedation=arithmetic mean/3×100

Male NMRI mice [5] = experiment: Mouse tetrad model, hypothermia, antagonistic effect against Win 55212-2; conditions: 5 mg/kg i.v. prior to Win 55212-2 1.25 mg/kg i.v.
From the text: as §1, §2, §3
(§8) In order to determine the antagonistic activity the identical procedure is used as for the determination of the agonistic effects, but with the difference that the substance to be evaluated for its antagonistic activity is injectected 5 minutes before the intravenous injection of 1.25 mg/kg Win-55,212 a known cannabinoid-receptor agonist.
Hypothermia is determined according to the method described in David R. Compton et al. “In-vivo Characterization of a Specific Cannabinoid Receptor Antagonist (SR141716A) Inhibition of Tetrahydrocannbinol-induced Responses and Apparent Agonist Activity”, J. Pharmacol Exp Ther. 277, 2, 586-594, 1996. […]
The base-line rectal temperatures are determined with a thermometer (Yello Springs Instruments Co., Panlabs) and a thermistor probe inserted to 25 mm before the administration of the substance to be tested. […]

Male NMRI mice [6] = experiment: Mouse tetrad model, sedation, antagonistic effect against Win 55212-2; conditions: 5 mg/kg i.v. prior to Win 55212-2 1.25 mg/kg i.v.
From the text: as §1, with “It has further been shown that cannabinoid receptor antagonists are higly effective in blocking the effects of a cannabinoid agonist in the mouse tetrad model.” left out
as §3
as §8, with “agonist. […]” for “agonist.”
as §7

Row | SMILES | Agonistic effect A: Hot-Plate test (Male NMRI mice [1]) | Agonistic effect B: Hypothermia (Male NMRI mice [2]) | Agonistic effect C: Catalepsy (Male NMRI mice [3]) | Agonistic effect D: Sedation (Male NMRI mice [4]) | Antagonistic Effect B: Hypothermia (Male NMRI mice [5]) | Antagonistic Effect D: Sedation (Male NMRI mice [6])
1 | C[C@@H]1[C@@H](OS(=O)(=O)c2ccc(F)cc2)CN1C(c1ccc(Cl)cc1)c1ccc(Cl)cc1 (relative stereo) [Example 1, 4-Fluoro-benzenesulfonic acid 1-[trans-bis-(4-chloro-phenyl)-methyl]-2-methyl-azetidin-3-yl ester] | 5 | 0 | 0 | 0 | 100 | 20
2 | C[C@@H]1[C@@H](NS(=O)(=O)c2ccc(S(C)(=O)=O)cc2)CN1C(c1ccc(Cl)cc1)c1ccc(Cl)cc1 (relative stereo) [Example 14, N-{trans-1-[Bis-(4-chloro-phenyl)-methyl]-2-methyl-azetidin-3-yl}-4-methylsulfonyl-benzenesulfonamide] |  | 0 | 0 | 0 |  | 9
3 | C[C@@H]1[C@@H](NS(=O)(=O)c2cccc3nsnc23)CN1C(c1ccc(Cl)cc1)c1ccc(Cl)cc1 (relative stereo) [Example 15, 2,1,3-Benzothiadiazole-4-sulfonic acid {trans-1-[bis-(4-chloro-phenyl)-methyl]-2-methyl-azetidin-3-yl}-amide] |  | 0 | 0 | 0 | 100 | 
4 | C[C@H]1[C@H](NS(=O)(=O)c2ccc(F)cc2)CN1C(c1ccc(Cl)cc1)c1ccc(Cl)cc1 [Example 5, N-{(2S,3R)-1-[Bis-(4-chloro-phenyl)-methyl]-2-methyl-azetidin-3-yl}-4-fluoro-benzenesulfonamide] | 2 | 0 | 0 | 0 | 100 | 
5 | C[C@H]1[C@H](NS(=O)(=O)c2cccs2)CN1C(c1ccc(Cl)cc1)c1ccc(Cl)cc1 [Example 6, Thiophene-2-sulfonic acid {(2S,3R)-1-[bis-(4-chloro-phenyl)-methyl]-2-methyl-azetidin-3-yl}-amide] | 0 | 0 | 0 | 0 |  | 
